According to patent US6159979A, “Bicyclic aryl or a bicyclic heterocyclic ring containing compounds having a combined 5HT1A, 5HT1B and 5HT1D receptor antagonistic activity” (SmithKline Beecham p.l.c., priority 1997, dated 2000):

Assays:
5-HT1A receptors = biological target: T1, 5-HT1A receptors (Homo sapiens, UniProt P08908); experiment: 5-HT1A receptor binding ([3H]-8-OH DPAT, HEK 293 cell homogenate); settings: HEK 293 cells expressing 5-HT1A receptors; [3H]-8-OH DPAT (1nM); pH 7.7, 37° C., 45 minutes; read-out: pKi values at 5-HT1A (converted)
T1 construct: expressed in transfected cells; host or cells: HEK 293
T1 sequence (P08908 1-422): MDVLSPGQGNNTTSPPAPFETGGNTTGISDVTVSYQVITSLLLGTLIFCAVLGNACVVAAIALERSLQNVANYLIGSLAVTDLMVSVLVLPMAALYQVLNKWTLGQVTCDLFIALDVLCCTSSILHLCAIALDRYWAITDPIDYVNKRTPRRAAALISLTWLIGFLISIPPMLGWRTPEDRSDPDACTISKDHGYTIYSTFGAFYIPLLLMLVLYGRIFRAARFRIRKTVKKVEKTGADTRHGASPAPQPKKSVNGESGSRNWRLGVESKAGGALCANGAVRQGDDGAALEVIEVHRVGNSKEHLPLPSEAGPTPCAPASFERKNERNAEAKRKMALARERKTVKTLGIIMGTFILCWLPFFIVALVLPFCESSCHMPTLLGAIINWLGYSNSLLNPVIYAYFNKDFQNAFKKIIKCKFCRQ
Method: (§1) 5-HT1A, 5-HT1B and 5-HT1D Receptor Binding
(§2) HEK 293 cells expressing 5-HT1A receptors (4×10^7 /ml) were homogenised in Tris buffer and stored in 1 ml aliquots. CHO cells expressing 5-HT1B receptors (4×10^7 cells/ml) were homogenised in Tris buffer and stored in 1.5 ml aliquots. CHO cells expressing 5-HT1D receptors (0.563×10^8 /ml) were homogenised in Tris buffer and stored in 1 ml aliquots.
(§3) 0.4 ml of a cell suspension was incubated with [^3 H]-5-HT (4nM) for 5-HT1B/1D receptors and [^3 H]-8-OH DPAT (1nM) for 5-HT1A receptors in Tris Mg HCl buffer (pH 7.7) and test drug, at 37° C. for 45 minutes. Each test drug was tested at 10 concentrations (0.01 mM to 0.3 nM final concentration), with non-specific binding defined using 0.01 mM 5-HT. The total assay volume was 0.5 ml. Incubation was stopped by rapid filtration using a Packard Filtermate (filters pre-soaked in 0.3% polyethylenimine) and radioactivity measured by Topcount scintillation counting. pKi values were calculated from the IC50 generated by an iterative least squares curve fitting programme.

5-HT1B receptors = biological target: T2, 5-HT1B receptors (Homo sapiens, UniProt P28222); experiment: 5-HT1B receptor binding ([3H]-5-HT, CHO cell homogenate); settings: CHO cells expressing 5-HT1B receptors; [3H]-5-HT (4nM); pH 7.7, 37° C., 45 minutes; read-out: pKi values at 5-HT1B (converted)
T2 construct: expressed in transfected cells; host or cells: CHO
T2 sequence (P28222 whole entry): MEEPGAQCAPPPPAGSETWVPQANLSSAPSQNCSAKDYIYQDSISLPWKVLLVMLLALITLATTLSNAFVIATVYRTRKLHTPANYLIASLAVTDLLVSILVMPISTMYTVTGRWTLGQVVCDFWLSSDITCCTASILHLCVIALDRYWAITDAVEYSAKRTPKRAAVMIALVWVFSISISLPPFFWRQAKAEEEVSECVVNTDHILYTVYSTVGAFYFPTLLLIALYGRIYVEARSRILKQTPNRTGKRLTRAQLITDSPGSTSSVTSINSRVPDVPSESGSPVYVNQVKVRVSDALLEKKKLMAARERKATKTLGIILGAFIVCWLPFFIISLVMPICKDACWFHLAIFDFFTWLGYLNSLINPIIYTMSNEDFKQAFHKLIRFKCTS
Method: as §1, §2, §3

5-HT1D receptors = biological target: T3, 5-HT1D receptors (Homo sapiens, UniProt P28221); experiment: 5-HT1D receptor binding ([3H]-5-HT, CHO cell homogenate); settings: CHO cells expressing 5-HT1D receptors; [3H]-5-HT (4nM); pH 7.7, 37° C., 45 minutes; read-out: pKi values at 5-HT1D (converted)
T3 construct: expressed in transfected cells; host or cells: CHO
T3 sequence (P28221 whole entry): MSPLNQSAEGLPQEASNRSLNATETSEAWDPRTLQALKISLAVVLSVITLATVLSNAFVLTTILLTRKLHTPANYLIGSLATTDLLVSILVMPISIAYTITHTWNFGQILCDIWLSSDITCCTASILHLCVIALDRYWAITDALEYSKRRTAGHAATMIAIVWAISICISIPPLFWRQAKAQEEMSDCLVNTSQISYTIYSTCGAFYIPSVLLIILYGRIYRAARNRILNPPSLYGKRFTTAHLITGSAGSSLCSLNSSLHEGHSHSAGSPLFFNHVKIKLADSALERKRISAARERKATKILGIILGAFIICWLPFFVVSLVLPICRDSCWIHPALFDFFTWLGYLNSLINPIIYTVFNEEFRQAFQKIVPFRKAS
Method: as §1, §2, §3

Measured: Ki

COc1ccc(NC(=O)Cc2ccc(-c3cccnc3)c3ccccc23)cc1N1CCN(C)CC1 [Example 28, N-[4-Methoxy-3-(4-methylpiperazin-1-yl)phenyl]-4-(pyridin-3-yl)naphth-1-ylacetamide]
< 10 nM: all assays above

COc1ccc(NC(=O)Nc2cccc3c(-c4ccccc4)cccc23)cc1N1CCN(C)CC1 [Example 33, N-[4-Methoxy-3-(4-methylpiperazin-1-yl)phenyl]-N'-[5-phenylnaphth-1-yl]urea]
< 10 nM: all assays above

CN1CCN(c2cc(NC(=O)Nc3ccc(-c4ccncc4)c4ccccc34)ccc2Cl)CC1 [Example 11, N-[4-Chloro-3-(4-methylpiperazin-1-yl)phenyl]-N'-[4-(pyridin-4-yl)naphth-1-yl]urea]
< 10 nM: all assays above

CN1CCN(c2cc(NC(=O)Cc3ccc(-c4ccncc4)c4ccccc34)ccc2Br)CC1 [Example 38, N-[4-Bromo-3-(4-methylpiperazin-1-yl)phenyl]-4-(pyridin-4-yl)naphth-1-ylacetamide]
< 10 nM: all assays above

COc1ccc(NC(=O)Cc2ccc(-c3ccncc3)c3ccccc23)cc1N1CCN(C)CC1 [Example 10, N-[4-Methoxy-3-(4-methylpiperazin-1-yl)phenyl]-4-(pyridin-4-yl)naphth-1-ylacetamide]
< 10 nM: all assays above

COc1ccc(NC(=O)Nc2cccc3c(-c4cccc(C(C)=O)c4)cccc23)cc1N1CCN(C)CC1 [Example 40, N-[5-(3-Acetylphenyl)naphth-1-yl]-N'-[4-methoxy-3-(4-methylpiperazin-1-yl)phenyl]urea]
< 10 nM: all assays above
